Experimental data reported in ChEMBL document CHEMBL1201862, “PubChem BioAssay data set” (2004).
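These data come from cells grown in 96-well plates and exposed to compound for 48 hours at five concentrations. Abbreviation: GI50, concentration required for 50% inhibition of growth.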 The source made the active and inactive calls. Rule as the data show it: active = GI50 up to about 1.1 µM and inactive = higher.

Experiments:
Experiment in all cases: growth of human tumour cells (NCI), 48 h
A498 = system: A498
U-251 = system: U-251
SF-268 = system: SF-268
HT-29 = system: HT-29
OVCAR-5 = system: OVCAR-5
HOP-62 = system: HOP-62
IGROV-1 = system: IGROV-1
OVCAR-3 = system: OVCAR-3
RXF 393 = system: RXF 393
SF-539 = system: SF-539
SK-MEL-28 = system: SK-MEL-28
CCRF-CEM = system: CCRF-CEM
NCI-H226 = system: NCI-H226
TK-10 = system: TK-10
SR = system: SR
786-0 = system: 786-0
MDA-N = system: MDA-N
NCI/ADR-RES = system: NCI/ADR-RES
DU-145 = system: DU-145

Measured: GI50

Cn1cnc(CCc2ccccc2)n1
inactive: A498 > 100 µM | U-251 > 100 µM | SF-268 > 100 µM | HT-29 > 100 µM | OVCAR-5 > 100 µM | HOP-62 > 100 µM | IGROV-1 > 100 µM | OVCAR-3 > 100 µM | RXF 393 > 100 µM | SF-539 > 100 µM | SK-MEL-28 > 100 µM | CCRF-CEM > 100 µM | NCI-H226 > 100 µM | TK-10 > 100 µM | SR > 100 µM | 786-0 > 100 µM

COc1cccc(C2c3cc4c(cc3OC3COC(=O)C32)OCO4)c1OC (stereo not drawn)
inactive: A498 > 100 µM | MDA-N 3.93 µM | NCI/ADR-RES > 100 µM | SF-268 > 100 µM | HT-29 > 100 µM | OVCAR-5 > 100 µM | HOP-62 61.1 µM | IGROV-1 > 100 µM | OVCAR-3 > 100 µM | RXF 393 83.4 µM | SF-539 > 100 µM | SK-MEL-28 > 100 µM | DU-145 > 100 µM | CCRF-CEM > 100 µM | NCI-H226 > 100 µM | TK-10 > 100 µM | 786-0 > 100 µM

S=C(c1c[nH]c2ccccc12)N1CCN(c2ccccc2)CC1
inactive: A498 > 100 µM | MDA-N > 100 µM | NCI/ADR-RES 34.9 µM | U-251 14.2 µM | SF-268 19.8 µM | HT-29 59.6 µM | OVCAR-5 > 100 µM | HOP-62 75.3 µM | IGROV-1 7.11 µM | OVCAR-3 > 100 µM | RXF 393 > 100 µM | SF-539 71.6 µM | SK-MEL-28 86.9 µM | DU-145 > 100 µM | CCRF-CEM > 100 µM | NCI-H226 7.76 µM | TK-10 > 100 µM | SR > 100 µM | 786-0 46.9 µM

CCOC(=O)c1c2ccc(/C=C/c3ccccc3)ccc-2c(C(=O)OCC)c1N
inactive: A498 36.1 µM | SF-268 > 100 µM | HT-29 95.3 µM | OVCAR-5 > 100 µM | IGROV-1 > 100 µM | OVCAR-3 > 100 µM | RXF 393 > 100 µM | SF-539 > 100 µM | SK-MEL-28 > 100 µM | CCRF-CEM > 100 µM | NCI-H226 > 100 µM | TK-10 > 100 µM | SR 4.2 µM | 786-0 > 100 µM

Cc1ccc(C(=O)OC[C@H]2CC[C@@H](n3cc(N(C)C4CCCCC4)c(=O)[nH]c3=O)O2)cc1
inactive: A498 19.5 µM | MDA-N 23.7 µM | NCI/ADR-RES 20 µM | U-251 20.2 µM | SF-268 28 µM | HT-29 18.5 µM | OVCAR-5 26.6 µM | HOP-62 20.6 µM | IGROV-1 33.4 µM | OVCAR-3 21.6 µM | RXF 393 16.7 µM | SF-539 23.8 µM | SK-MEL-28 53.1 µM | DU-145 > 100 µM | CCRF-CEM 27.4 µM | NCI-H226 24.4 µM | TK-10 30 µM | SR 95.7 µM | 786-0 28.1 µM

CSC1=N/C(=C\c2cccs2)C(=O)N1CN1CCOCC1
inactive: A498 64.9 µM | MDA-N 59 µM | NCI/ADR-RES 14.3 µM | U-251 85.5 µM | SF-268 42.3 µM | HT-29 24.9 µM | OVCAR-5 > 100 µM | HOP-62 95.7 µM | IGROV-1 41.5 µM | OVCAR-3 > 100 µM | SK-MEL-28 > 100 µM | DU-145 65.9 µM | CCRF-CEM 27.3 µM | NCI-H226 31.1 µM | TK-10 86.7 µM | SR 17.4 µM | 786-0 44.5 µM

C[N+](C)(C)CC1CCC/C1=N/O (stereo not drawn)
inactive: A498 > 100 µM | U-251 48.4 µM | SF-268 > 100 µM | HT-29 39.3 µM | OVCAR-5 > 100 µM | HOP-62 > 100 µM | IGROV-1 > 100 µM | OVCAR-3 > 100 µM | RXF 393 37.1 µM | SF-539 > 100 µM | SK-MEL-28 > 100 µM | CCRF-CEM 17.9 µM | NCI-H226 > 100 µM | TK-10 > 100 µM | SR 27.7 µM | 786-0 22.2 µM

CO[C@@]1(c2ccccc2)O[C@H]2OCCC2[C@H]1c1ccc(Cl)cc1 (stereo partly drawn)
inactive: A498 25.5 µM | U-251 28.2 µM | SF-268 56.9 µM | HT-29 20.3 µM | OVCAR-5 29.1 µM | HOP-62 40.8 µM | IGROV-1 97.7 µM | OVCAR-3 16.5 µM | RXF 393 17.7 µM | SF-539 51.6 µM | SK-MEL-28 63.8 µM | NCI-H226 33.4 µM | TK-10 40.8 µM | SR 29 µM | 786-0 32 µM
